Where a SMILES comes first, the peptide text is derived from it. The star is where a group is joined. Cbz = O=C(OCc1ccccc1)*
Experiments:
Assay type in all cases: cell-based, human
STMN2 RNA = assay: qRT-PCR of full-length STMN2 after proteasome inhibition with MG-132 in patient's motor neurons; settings: MG-132 (1 uM); patient's neurons
Source text: It was established that ASO (SJ+94) and ASO (SJ-1) suppressed cryptic splicing of STMN2 and restored full length STMN2 RNA in the patient's motor neurons when there is a reduction in nuclear TDP-43. […] Post-mortem tissue studies have shown that TDP-43 mis-localization and its aggregation in cytoplasm is a hallmark of sporadic ALS. Several groups have reported cytoplasmic aggregation of TDP-43 akin to that observed in post-mortem tissue of sporadic ALS patients occurs in response to pharmacological inhibition of the proteasome (1, 4).

proteasome = proteasome activity assay in hMNs treated with MG-132; settings: overnight 1 μM treatment
TDP-43 [1] = assay: TDP-43 localization by immunostaining, Pearson's correlation with DAPI, after MG-132 pulse-chase
Protocol: For immunofluorescence, cells were fixed with ice-cold 4% PFA for 15 minutes at 4° C., permeabilized with 0.2% Triton-X in lx PBS for 45 minutes and blocked with 10% donkey serum in lx PBS-T (0.1% Tween-20) for 1 hour. Cells were then incubated overnight at 4° C. with primary antibody (diluted in blocking solution). At least 4 washes (5 min incubation each) with 1×PBS-T were carried out, before incubating the cells with secondary antibodies for 1 hour at room temperature (diluted in blocking solution). Nuclei were stained with DAPI. The following antibodies were used in this study: Hb9 (1:100, DSHB, MNR2 81.5C10-c), TUJ1 (1:1000, Sigma, T2200), MAP2 (1:10000, Abcam ab5392), Ki67 (1:400, Abcam, ab833), GFP (1:500, Life Technologies™, A10262), Islet1 (1:500, Abcam ab20670), TDP-43 (1:500, ProteinTech Group), STMN2 (1:4000, Novus), AlexaFluor™ 647-Phalloidin (1:200,). Secondary antibodies used (488, 555, 594, and 647) were AlexaFluor™ (1:1000, Life Technologies™) and DyLight (1:500, Jackson ImmunoResearch Laboratories). Micrographs were analyzed using FIJI software to determine the correlation coefficient.

TDP-43 [2] = assay: immunoblot of TDP-43 in detergent-soluble (RIPA) and detergent-insoluble (UREA) fractions after MG-132
Protocol: (§1) To determine what happened to TDP-43 after proteasome inhibition, TDP-43 levels were examined by immunoblot analysis in both the detergent-soluble and detergent-insoluble fractions. […] Finally, STMN2 levels in neurons treated with either a short-term high dose or a long-term low dose of MG-132 were probed.
For analysis of TDP-43 and STMN2 protein expression levels, d10 MNs were lysed in RIPA buffer (150 mM Sodium Chloride; 1% Triton X-100; 0.5% sodium deoxycholate; 0.1% SDS; 50 mM Tris pH 8.0) containing protease and phosphatase inhibitors (Roche) for 20 min on ice, and centrifuged at high speed. 200 μL of RIPA buffer per well of 24-well culture were routinely used, which yielded ˜20 μg of total protein as determined by BCA (Thermo Scientific). After two washes with RIPA buffer, insoluble pellets were resuspended in 200 μl of UREA buffer (Bio-Rad). For immunoblot assays 2-3 μg of total protein were separated by SDS-PAGE (BioRad), transferred to PDVF membranes (BioRad) and probed with antibodies against TDP-43 (1:1000, ProteinTech Group), GAPDH (1:1000, Millipore) and STMN2 (1:3000, Novus). Insoluble pellets were loaded based on protein concentration of correspondent RIPA-soluble counterparts. […] GAPDH levels were used to normalized each sample, and LiCor software was used to quantitate protein band signal.

STMN2 [3] = assay: qRT-PCR of STMN2 expression in hMNs treated with proteasome inhibitors; settings: short-term high dose or long-term low dose
Protocol: as §1
Total RNA was isolated from d10 MNs for RNA-Seq experiments and validation assays using Trizol LS (Invitrogen) according to manufacturer's instructions. 500 μL were added per well of the 24-well cultures. A total of 300-1000 ng of total RNA was used to synthesize cDNA by reverse transcription according to the iSCRIPT kit (Bio-rad). Quantitative RT-PCR (qRT-PCR) was then performed using SYBR green (Bio-Rad) and the iCycler system (Bio-rad). Quantitative levels for all genes assayed were normalized using GAPDH expression. […] All primer sequences are available upon request. For next-generation RNA sequencing (RNA-Seq), at least two technical replicas per siRNA sample or AAVS1-TDP43 genotype were included in the analyses. After RNA extraction, samples with RNA integrity numbers (RIN) above 7.5, determined by a bioAnalyzer, were used for library preparation. […] All FASTQ files were analyzed using the bcbioRNASeq workflow and toolchain (90). […]

STMN2 [4] = assay: STMN2 mRNA expression in HUES3, IG2 (Stmn2 KO) and CN7 (cryptic exon deletion) lines stressed with MG132; settings: 1 uM for 24 hours
Protocol: Three cell lines, HUES3, IG2 (Stmn2 KO), and CN7 (cryptic exon deletion) were treated with normal media or media+1 uM MG132 for 24 hours to stress the cells. In HUES3 cells, the stressed condition had 52% STMN2 mRNA expression compared to the unstressed condition. In IG2 (Stmn2 KO) condition, unstressed cells had 13% expression, and when stressed, expression increased to 42%. […] It was shown that if several exons are knocked out the expression goes down, but if the TDP-43 binding site is removed, expression goes way up.

STMN2 cryptic exon = assay: RT-PCR detection of transcripts containing the STMN2 cryptic exon in hMNs treated with proteasome inhibitors
Protocol: It was then asked if cryptic exon inclusion could be contributing to decreased STMN2 levels in hMNs after proteasome inhibition. To accomplish this goal, an RT-PCR assay was developed to detect transcripts containing the cryptic exon (FIG. 5F). […] Total RNA was isolated from neurons using RNeasy Mini Kit (Qiagen) according to manufacturer's instructions. A total of 300-1000 ng of total RNA was used to synthesize cDNA by reverse transcription according to the iSCRIPT kit (Bio-rad). RT-PCR was then performed using one cryptic exon-specific primer and then analyzed using the Agilent 2200 Tapestation.

## CC(C)C[C@@H](C=O)NC(=O)[C@H](CC(C)C)NC(=O)[C@H](CC(C)C)NC(=O)OCc1ccccc1 [MG-132] (Cbz-Leu-Leu-Leu-aldehyde)
STMN2 RNA
  STMN2 expression after proteasome inhibition: decreased STMN2 expression
proteasome
  proteasome activity: less than 10 % of normal activity
TDP-43 [1]; 24 hour 1 μM pulse, hMNs
  TDP-43 staining in the nucleus: greatly diminished
TDP-43 [1]; after 24 hour 1 μM pulse and washout
  TDP-43 staining following washout: indistinguishable to unchallenged neurons after 4 days
TDP-43 [2]; control neurons treated with a low dose
  TDP-43 levels in soluble lysates: significantly decreased TDP-43 levels
TDP-43 [2]; proteasome inhibition
  TDP-43 in UREA (insoluble) fraction: triggers TDP-43 to become insoluble
STMN2 [3]
  STMN2 mRNA levels: significant decreases
STMN2 [4]; CN7 (Cryptic Exon Deletion) cells, unstressed 729%
  STMN2 mRNA expression: 473%
STMN2 [4]; HUES3 cells
  STMN2 mRNA expression compared to the unstressed condition: 52%
STMN2 [4]; IG2 (Stmn2 KO) cells, unstressed 13%
  STMN2 mRNA expression: 42%
STMN2 cryptic exon
  transcripts containing the STMN2 cryptic exon (PCR assay): presence of transcripts containing the STMN2 cryptic exon

From patent US20240011027A1, “METHODS AND COMPOSITIONS FOR RESTORING STMN2 LEVELS” (President and Fellows of Harvard College, priority 2020, published 2024)
